For test [1], the target named is human GLP-1 receptor (hGLP-1R) (Homo sapiens, UniProt P43220). Description: cAMP production (HTRF) in CHO cells expressing hGLP-1R. It is filed as cell-based. On the set-up: expressed in transfected cells. The settings on record: for % Relative Potency Ratio: % GLP-1R activity relative to GLP-1 / % GlucR activity relative to glucagon; for EC50: geometric mean, read-out: hGLP-1R EC50. The method, boiled down: (§1)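 Cells were resuspended in assay buffer at batch-optimized density, typically 1×10^5 cells/mL for hGLP-1R and 2×10^5 cells/mL for hGCGR. After 30 min incubation at room temperature with compound, cAMP was measured by two-step HTRF. EC50 values came from 4-parameter logistic fits of % Delta F.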
For orientation: cAMP levels reflect the balance of adenylyl cyclase and phosphodiesterase activity.

Test [2] concerns the target human glucagon receptor (hGCGR) (Homo sapiens, UniProt P47871). The test is described as follows: cAMP production (HTRF) in CHO cells expressing hGCGR. Format: cell-based. On the set-up: expressed in transfected cells. The settings on record: geometric mean, read-out: hGluc-R EC50. The gist of the method:
as §1

The mark [3] stands for this setting: Table 6, peptides modified at position 17, cAMP in CHO hGCGR cells.
[4] abbreviates: Table 6, peptides modified at position 17, cAMP in CHO hGLP-1R cells.

Read-outs that look alike come from different tables or passages of the source. Starred links: 1 amine or outer side, 2 acyl side, 3 side chain; linkers in the order of their positions; H or OH if unused. Non-standard residues stand in square brackets, D forms with d. Residues, ends and D or L forms follow the SMILES beside them. Groups on a side chain read outwards from the residue. *: point of attachment. C20 diacid = O=C(O)CCCCCCCCCCCCCCCCCCC(=O)*; C18 diacid = O=C(O)CCCCCCCCCCCCCCCCC(=O)*; γGlu = O=C(O)[C@H](CCC(=O)[*:2])N[*:1]; Stearoyl = CCCCCCCCCCCCCCCCCC(=O)*; Palmitoyl = CCCCCCCCCCCCCCCC(=O)*; αMeF = C[C@](N)(Cc1ccccc1)C(=O)O; PEG2 = NCCOCCOCCC(=O)O; AEEA = NCCOCCOCC(=O)O; Aib = CC(C)(N)C(=O)O

Sequence of human GLP-1 receptor (hGLP-1R) (P43220 24-463): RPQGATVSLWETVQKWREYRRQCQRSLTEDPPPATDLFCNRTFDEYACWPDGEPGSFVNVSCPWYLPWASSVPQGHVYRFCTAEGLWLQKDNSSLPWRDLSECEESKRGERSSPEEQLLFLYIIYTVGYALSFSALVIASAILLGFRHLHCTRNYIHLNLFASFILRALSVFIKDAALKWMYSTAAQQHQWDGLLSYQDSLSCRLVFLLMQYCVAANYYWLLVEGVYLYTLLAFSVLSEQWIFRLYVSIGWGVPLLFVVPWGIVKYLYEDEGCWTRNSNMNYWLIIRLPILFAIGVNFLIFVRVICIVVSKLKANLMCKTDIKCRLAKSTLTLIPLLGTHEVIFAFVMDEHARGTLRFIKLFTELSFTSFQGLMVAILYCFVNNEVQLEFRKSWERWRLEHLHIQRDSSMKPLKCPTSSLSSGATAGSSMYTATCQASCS
Sequence of human glucagon receptor (hGCGR) (P47871 26-477): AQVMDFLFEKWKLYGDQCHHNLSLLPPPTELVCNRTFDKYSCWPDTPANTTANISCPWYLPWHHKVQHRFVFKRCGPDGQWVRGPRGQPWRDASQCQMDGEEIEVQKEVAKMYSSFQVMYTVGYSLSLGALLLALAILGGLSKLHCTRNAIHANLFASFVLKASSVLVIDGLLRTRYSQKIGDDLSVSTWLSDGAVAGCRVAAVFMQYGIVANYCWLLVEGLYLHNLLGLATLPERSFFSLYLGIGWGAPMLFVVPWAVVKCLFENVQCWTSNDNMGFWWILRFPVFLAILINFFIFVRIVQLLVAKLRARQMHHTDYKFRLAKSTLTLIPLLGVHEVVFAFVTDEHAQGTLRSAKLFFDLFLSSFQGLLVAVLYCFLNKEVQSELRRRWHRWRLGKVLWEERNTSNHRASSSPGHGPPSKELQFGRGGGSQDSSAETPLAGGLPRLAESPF

`CCCCCCCCCCCCCCCCCC(=O)N[C@@H](CCC(=O)N[C@@H](CCC(=O)NCCOCCOCCC(=O)NCCOCCOCCC(=O)NCCCC[C@H](NC(=O)[C@H](CO)NC(=O)[C@H](CC(=O)O)NC(=O)[C@H](CC(C)C)NC(=O)[C@](C)(Cc1ccccc1)NC(=O)[C@H](CCCCN)NC(=O)[C@H](CO)NC(=O)[C@@H](NC(=O)[C@H](CC(=O)O)NC(=O)[C@H](CO)NC(=O)[C@@H](NC(=O)[C@](C)(Cc1ccccc1)NC(=O)[C@H](CO)NC(=O)CNC(=O)[C@H](CCC(N)=O)NC(=O)[C@H](CO)NC(=O)[C@@H](N)Cc1c[nH]cn1)[C@@H](C)O)C(C)C)C(=O)N[C@@H](C)C(=O)N[C@@H](C)C(=O)N[C@@H](CCC(N)=O)C(=O)N[C@@H](CC(=O)O)C(=O)N[C@@](C)(Cc1ccccc1)C(=O)N[C@H](C(=O)N[C@@H](CCC(N)=O)C(=O)NC(C)(C)C(=O)N[C@H](C(=O)N[C@@H](C)C(=O)N[C@@H](CC(N)=O)C(N)=O)[C@@H](C)CC)C(C)C)C(=O)O)C(=O)O` [Peptide 86] (H-HSQGS[αMeF]TSDVSK[αMeF]LDSK([PEG2-PEG2-γGlu-γGlu-Stearoyl])AAQD[αMeF]VQ[Aib]IAN-NH2; N-terminus assumed): in test [1] (Table 6), the “% Relative Potency Ratio” value amounted to 16.6. In test [2] (setting [3]), the EC50 turned out to be 0.00646 nM.

As for `CC[C@H](C)[C@H](NC(=O)[C@H](Cc1c[nH]c2ccccc12)NC(=O)[C@H](CCCCNC(=O)COCCOCCNC(=O)COCCOCCNC(=O)CC[C@H](NC(=O)CCCCCCCCCCCCCCCCCCC(=O)O)C(=O)O)NC(=O)[C@@H](NC(=O)[C@H](Cc1ccccc1)NC(=O)[C@H](CC(=O)O)NC(=O)[C@H](CCC(N)=O)NC(=O)[C@H](C)NC(=O)C(C)(C)NC(=O)[C@H](CCCNC(=N)N)NC(=O)[C@H](CO)NC(=O)[C@H](CC(=O)O)NC(=O)[C@H](CC(C)C)NC(=O)[C@](C)(Cc1ccccc1)NC(=O)[C@H](CCCCN)NC(=O)[C@H](CO)NC(=O)[C@@H](NC(=O)[C@H](CC(=O)O)NC(=O)[C@H](CO)NC(=O)[C@@H](NC(=O)[C@](C)(Cc1ccccc1)NC(=O)[C@H](CO)NC(=O)CNC(=O)[C@H](Cc1c[nH]cn1)NC(=O)C(C)(C)NC(=O)[C@@H](N)Cc1c[nH]cn1)[C@@H](C)O)C(C)C)C(C)C)C(=O)N[C@@H](C)C(=O)N[C@@H](CC(N)=O)C(=O)N[C@H](C(N)=O)[C@@H](C)O` [Peptide 368, H(Aib)HGS(αMePhe)TSDVSK(αMePhe)LDSR(Aib)AQDFVK(O2OC-O2OC-γE-C20diacid)24WIANT-amide] (H-H[Aib]HGS[αMeF]TSDVSK[αMeF]LDSR[Aib]AQDFVK([AEEA-AEEA-γGlu-C20 diacid])WIANT-NH2), the “% Relative Potency Ratio” value in test [1] amounted to 3.1. In addition, the EC50 in test [1] (cAMP, CHO cells, 0.1% BSA) stood at 0.186 nM; in test [2] (cAMP, CHO cells, 0.1% BSA), 0.29 nM.

In the case of `CC(C)C[C@H](NC(=O)[C@H](Cc1c[nH]c2ccccc12)NC(=O)[C@H](CCCNC(=N)N)NC(=O)[C@@H](NC(=O)[C@H](Cc1ccccc1)NC(=O)[C@H](CC(=O)O)NC(=O)[C@H](CCC(N)=O)NC(=O)[C@H](C)NC(=O)[C@H](CCCNC(=N)N)NC(=O)[C@H](CCCCNC(=O)COCCOCCNC(=O)COCCOCCNC(=O)CC[C@H](NC(=O)CCCCCCCCCCCCCCCCC(=O)O)C(=O)O)NC(=O)[C@H](CCCCN)NC(=O)[C@H](CC(=O)O)NC(=O)[C@H](CC(C)C)NC(=O)[C@](C)(Cc1ccccc1)NC(=O)[C@H](CCCCN)NC(=O)[C@H](CO)NC(=O)[C@@H](NC(=O)[C@H](CC(=O)O)NC(=O)[C@H](CO)NC(=O)[C@@H](NC(=O)[C@H](Cc1ccccc1)NC(=O)[C@@H](NC(=O)CNC(=O)[C@H](CCC(N)=O)NC(=O)C(C)(C)NC(=O)[C@@H](N)Cc1c[nH]cn1)[C@@H](C)O)[C@@H](C)O)C(C)C)C(C)C)C(=O)N[C@@H](CC(C)C)C(=O)N[C@@H](CCCNC(=N)N)C(=O)NC(C)(C)C(=O)N[C@@H](CCCCN)C(=O)O` [Peptide 426] (H-H[Aib]QGTFTSDVSK[αMeF]LDKK([AEEA-AEEA-γGlu-C18 diacid])RAQDFVRWLLR[Aib]K-OH; N-terminus assumed), the EC50 in test [1] (setting [4]) came to 0.0073 nM; in test [2] (setting [3]) it was 0.0612 nM. Also, in test [1] (Table 6), the “% Relative Potency Ratio” value is listed as 16.6.

Regarding `CC[C@H](C)[C@H](NC(=O)[C@H](Cc1c[nH]c2ccccc12)NC(=O)[C@H](CCC(N)=O)NC(=O)[C@@H](NC(=O)[C@H](Cc1ccccc1)NC(=O)[C@H](CC(=O)O)NC(=O)[C@H](CCCCNC(=O)COCCOCCNC(=O)COCCOCCNC(=O)CC[C@H](NC(=O)CCCCCCCCCCCCCCCCC(=O)O)C(=O)O)NC(=O)[C@H](C)NC(=O)[C@H](C)NC(=O)[C@H](CCCNC(=N)N)NC(=O)[C@H](CO)NC(=O)[C@H](CC(=O)O)NC(=O)[C@H](CC(C)C)NC(=O)[C@](C)(Cc1ccccc1)NC(=O)[C@H](CCCCN)NC(=O)[C@H](CO)NC(=O)[C@@H](NC(=O)[C@H](CC(=O)O)NC(=O)[C@H](CO)NC(=O)[C@@H](NC(=O)[C@](C)(Cc1ccccc1)NC(=O)[C@H](CO)NC(=O)CNC(=O)[C@H](Cc1c[nH]cn1)NC(=O)C(C)(C)NC(=O)[C@@H](N)Cc1c[nH]cn1)[C@@H](C)O)C(C)C)C(C)C)C(=O)N[C@@H](C)C(=O)N[C@@H](CC(N)=O)C(=O)N[C@H](C(N)=O)[C@@H](C)O` [Peptide 205] (H-H[Aib]HGS[αMeF]TSDVSK[αMeF]LDSRAAK([AEEA-AEEA-γGlu-C18 diacid])DFVQWIANT-NH2), the EC50 in test [1] (Table 7, peptides modified at position 20, cAMP in CHO hGLP-1R cells) was found to be 0.0299 nM; in test [2] (Table 7, peptides modified at position 20, cAMP in CHO hGCGR cells), 0.00814 nM. The “% Relative Potency Ratio” value in test [1] (Table 7) is 0.5.

Consider `CCCCCCCCCCCCCCCC(=O)N[C@@H](CCC(=O)N[C@@H](CCC(=O)NCCOCCOCCC(=O)NCCOCCOCCC(=O)NCCCC[C@H](NC(=O)[C@H](CO)NC(=O)[C@H](CC(=O)O)NC(=O)[C@H](CC(C)C)NC(=O)C(C)(C)NC(=O)[C@H](CCCCN)NC(=O)[C@H](CO)NC(=O)[C@@H](NC(=O)[C@H](CC(=O)O)NC(=O)[C@H](CO)NC(=O)[C@@H](NC(=O)[C@](C)(Cc1ccccc1)NC(=O)[C@H](CO)NC(=O)CNC(=O)[C@H](CCC(N)=O)NC(=O)[C@H](CO)NC(=O)[C@@H](N)Cc1c[nH]cn1)[C@@H](C)O)C(C)C)C(=O)N[C@@H](CCC(N)=O)C(=O)N[C@@H](C)C(=O)N[C@@H](CCC(N)=O)C(=O)N[C@@H](CC(=O)O)C(=O)N[C@@](C)(Cc1ccccc1)C(=O)N[C@H](C(=O)N[C@@H](CCC(N)=O)C(=O)NC(C)(C)C(=O)N[C@H](C(=O)N[C@@H](C)C(=O)N[C@@H](CC(N)=O)C(N)=O)[C@@H](C)CC)C(C)C)C(=O)O)C(=O)O` [Peptide 105] (H-HSQGS[αMeF]TSDVSK[Aib]LDSK([PEG2-PEG2-γGlu-γGlu-Palmitoyl])QAQD[αMeF]VQ[Aib]IAN-NH2), for which the EC50 came out at 0.0648 nM in test [1] (setting [4]) and 0.121 nM in test [2] (setting [3]). Moreover, the “% Relative Potency Ratio” value in test [1] (Table 6) is 3.7.

For orientation: EC50 means the midpoint of the concentration-response curve.

These data come from patent publication US20250353891A1 (MEDIMMUNE LIMITED, priority 2022, published 2025).
